Experimental data reported in the NIST ThermoML archive (doi:10.1016/j.fluid.2018.04.012).
± gives the expanded uncertainty stated by the source.

Assay: xn = mol fraction of the nth substance listed
Conditions: Liquid, Vibrating tube method

CC(C)OC(C)C [diisopropyl ether] + CC(C)O
mass density [kg/m3]
Conditions	x2 = 0.1503	x2 = 0.2979	x2 = 0.4228	x2 = 0.5	x2 = 0.6737	x2 = 0.8483
298.15 K, 100 kPa	725.5 ± 0.7	732.6 ± 0.7	739.4 ± 0.7	743.7 ± 0.7	754.9 ± 0.7	768 ± 0.7
298.15 K, 1000 kPa	726.6 ± 0.7	733.6 ± 0.7	740.5 ± 0.7	744.7 ± 0.7	755.8 ± 0.7	768.9 ± 0.7
298.15 K, 5000 kPa	731.3 ± 0.7	738.2 ± 0.7	744.8 ± 0.7	749 ± 0.7	759.9 ± 0.7	772.6 ± 0.7
298.15 K, 10000 kPa	736.8 ± 0.7	743.6 ± 0.7	749.9 ± 0.7	754 ± 0.7	764.7 ± 0.7	777.1 ± 0.7
298.15 K, 15000 kPa	742.1 ± 0.8	748.6 ± 0.8	754.6 ± 0.7	758.8 ± 0.7	769.1 ± 0.7	781.3 ± 0.7
298.15 K, 20000 kPa	746.8 ± 0.8	753.2 ± 0.8	759.2 ± 0.8	763.2 ± 0.8	773.4 ± 0.8	785.2 ± 0.8
298.15 K, 25000 kPa	751.4 ± 0.8	757.6 ± 0.8	763.5 ± 0.8	767.5 ± 0.8	777.4 ± 0.8	789 ± 0.8
298.15 K, 30000 kPa	755.7 ± 0.8	761.9 ± 0.8	767.6 ± 0.8	771.5 ± 0.8	781.2 ± 0.8	792.6 ± 0.8
298.15 K, 35000 kPa	759.7 ± 0.8	765.8 ± 0.8	771.5 ± 0.8	775.2 ± 0.8	784.8 ± 0.8	796 ± 0.8
298.15 K, 40000 kPa	763.6 ± 0.8	769.6 ± 0.8	775.2 ± 0.8	778.9 ± 0.8	788.3 ± 0.8	799.3 ± 0.8
298.15 K, 45000 kPa	767.4 ± 0.9	773.2 ± 0.9	778.8 ± 0.8	782.4 ± 0.8	791.7 ± 0.8	802.6 ± 0.8
298.15 K, 50000 kPa	770.9 ± 0.9	776.7 ± 0.9	782.2 ± 0.9	785.8 ± 0.9	794.9 ± 0.8	805.6 ± 0.8
298.15 K, 55000 kPa	774.4 ± 0.9	780.1 ± 0.9	785.5 ± 0.9	789 ± 0.9	798.1 ± 0.9	808.6 ± 0.8
298.15 K, 60000 kPa	777.7 ± 0.9	783.3 ± 0.9	788.7 ± 0.9	792.1 ± 0.9	801.1 ± 0.9	811.5 ± 0.9
298.15 K, 65000 kPa	780.9 ± 0.9	786.5 ± 0.9	791.8 ± 0.9	795.2 ± 0.9	804 ± 0.9	814.3 ± 0.9
298.15 K, 70000 kPa	784 ± 1	789.5 ± 1	794.8 ± 0.9	798.2 ± 0.9	806.8 ± 0.9	817.1 ± 0.9
298.15 K, 80000 kPa	789.9 ± 1	795.3 ± 1	800.5 ± 1	803.8 ± 1	812.3 ± 0.9	822.3 ± 0.9
298.15 K, 90000 kPa	795.6 ± 1	800.8 ± 1	805.9 ± 1	809.1 ± 1	817.5 ± 1	827.3 ± 1
298.15 K, 100000 kPa	800.8 ± 1.1	806 ± 1.1	810.9 ± 1	814.2 ± 1	822.4 ± 1	832 ± 1
298.15 K, 110000 kPa	805.8 ± 1.1	811 ± 1.1	815.8 ± 1.1	818.9 ± 1.1	827.1 ± 1	836.6 ± 1
298.15 K, 120000 kPa	810.5 ± 1.2	815.6 ± 1.1	820.4 ± 1.1	823.5 ± 1.1	831.5 ± 1.1	840.8 ± 1
298.15 K, 130000 kPa	815.1 ± 1.2	820.1 ± 1.2	824.8 ± 1.2	827.9 ± 1.1	835.7 ± 1.1	844.9 ± 1.1
298.15 K, 140000 kPa	819.5 ± 1.2	824.4 ± 1.2	829 ± 1.2	832.1 ± 1.2	839.8 ± 1.1	848.9 ± 1.1
313.15 K, 100 kPa	709.6 ± 0.7	716.9 ± 0.7	724 ± 0.7	728.5 ± 0.7	740.2 ± 0.7	754 ± 0.7
313.15 K, 1000 kPa	710.8 ± 0.7	718.1 ± 0.7	725.1 ± 0.7	729.6 ± 0.7	741.3 ± 0.7	755 ± 0.7
313.15 K, 5000 kPa	716.3 ± 0.7	723.3 ± 0.7	730 ± 0.7	734.4 ± 0.7	745.9 ± 0.7	759.2 ± 0.7
313.15 K, 10000 kPa	722.4 ± 0.7	729.3 ± 0.7	735.7 ± 0.7	740.1 ± 0.7	751.1 ± 0.7	764.1 ± 0.7
313.15 K, 15000 kPa	728.1 ± 0.8	734.8 ± 0.8	741 ± 0.8	745.3 ± 0.8	756 ± 0.7	768.7 ± 0.7
313.15 K, 20000 kPa	733.4 ± 0.8	739.9 ± 0.8	746 ± 0.8	750.2 ± 0.8	760.7 ± 0.8	773 ± 0.8
313.15 K, 25000 kPa	738.2 ± 0.8	744.6 ± 0.8	750.7 ± 0.8	754.6 ± 0.8	764.8 ± 0.8	776.9 ± 0.8
313.15 K, 30000 kPa	743.1 ± 0.8	749.4 ± 0.8	755.1 ± 0.8	759.2 ± 0.8	769.2 ± 0.8	781 ± 0.8
313.15 K, 35000 kPa	747.6 ± 0.8	753.6 ± 0.8	759.3 ± 0.8	763.3 ± 0.8	773.1 ± 0.8	784.7 ± 0.8
313.15 K, 40000 kPa	751.7 ± 0.9	757.7 ± 0.8	763.4 ± 0.8	767.2 ± 0.8	776.8 ± 0.8	788.2 ± 0.8
313.15 K, 45000 kPa	755.7 ± 0.9	761.6 ± 0.9	767.2 ± 0.9	770.9 ± 0.9	–	–
